The text below walks through data of patent US5328899A, “NPY peptide analogs” (The Salk Institute for Biological Studies, priority 1992, dated 1994).

The test system of test [1] is hypertensive actions of NPY. The test can be described thus: NPY-induced increase in MAP in animals pretreated with NPY(18-36). Type of test: in vivo, rat. As to conditions: NPY 1 μg intra-arterially, 3 animals. As to the method:
(§1) Saline solutions of the peptides are injected intra-arterially into conscious rats, and arterial pressure is monitored via an indwelling femoral cannula directly coupled to a pressure transducer. […] Control animals receive saline vehicle alone.

The next test relates to intracellular Ca++. The test can be described thus: Elevation of intracellular Ca++ concentrations. It counts as cell-based. The settings on record: 100 nM NPY after 100 nM NPY (18-36).
The next test concerns conscious rats. Put plainly: Effect on mean arterial blood pressure (MAP) and heart rate after intra-arterial injection in conscious rats. Type of test: in vivo, rat. As to the method: as §1
Saline solutions of the peptides were administered intraarterially in a 100-μL bolus in an amount equal to about 0.4 mg/Kg body weight.

As to Neuropeptide Y [NPY], the “increase in MAP obtained by NPY administration” value in test [1] (animals pretreated with NPY(18-36) 300 μg) was found to be 28±5 mmHg; in test [1] (control animals), 32±5 mmHg. For the same compound, the “elevation of intracellular Ca++ by NPY after addition of NPY(18-36)” value in the test on intracellular Ca++ is on record as “to the same extent as under control conditions”.

Regarding `CC[C@H](C)[C@H](NC(=O)[C@H](Cc1ccc(O)cc1)NC(=O)[C@H](Cc1c[nH]cn1)NC(=O)[C@H](CCCNC(=N)N)NC(=O)[C@H](CC(C)C)NC(=O)[C@H](C)NC(=O)[C@H](CO)NC(=O)[C@H](Cc1ccc(O)cc1)NC(=O)[C@H](Cc1ccc(O)cc1)NC(=O)[C@H](CCCNC(=N)N)NC(=O)[C@H](C)NC(=O)[C@@H](N)CC(C)C)C(=O)N[C@@H](CC(N)=O)C(=O)N[C@@H](CC(C)C)C(=O)N[C@H](C(=O)N[C@H](C(=O)N[C@@H](CCCNC(=N)N)C(=O)N[C@@H](CCC(N)=O)C(=O)N[C@@H](CCCNC(=N)N)C(=O)N[C@@H](Cc1ccc(O)cc1)C(N)=O)[C@@H](C)O)[C@@H](C)CC` [pNPY(17-36)], the “decrease in MAP at five and ten minutes after administration” value in the test with conscious rats is on record as “significantly decrease MAP”.
